Measurements as given in patent US12466850B2, “Method for producing peptide compound” (priority 2019, dated 2025).

Assays:
[1] = Test Example 1: Evaluation of the solubility in an organic solvent (saturated solution, HPLC); assay type: physicochemical; conditions: for amount of the compound dissolved in 100 g of organic solvent: per 100 g solvent, 20° C., saturated, stirred one hour or longer; for solubility as compared to the compound in Reference Synthesis Example 3: in toluene, cyclopentyl methyl ether, and ethyl acetate
Procedure: In the measurement of the solubility, the compounds obtained in Synthesis Examples 2 and 6 and Reference Synthesis Example 3 were used.
(§1) A test compound was dissolved in toluene, cyclopentyl methyl ether, or ethyl acetate so as to be saturated, and stirred at 20° C. for one hour or longer. The obtained solution was subjected to centrifugal filtration, and then the resultant filtrate was subjected to analysis under the below-shown conditions for measurement, determining an amount of the test compound dissolved.
(§2) • High performance liquid chromatography: HPLC-20A, manufactured by SHIMADZU Corporation • Column: XBridge C18 (2.5 μm, 4.6×100 mm) • Column oven temperature: 40° C. • Eluent: A=0.2 vol % aqueous solution of trifluoroacetic acid • B=0.2 vol % acetonitrile solution of trifluoroacetic acid • AB=50/50 (0 to 2 minutes), 50/50 to 0/100 (2 to 15 minutes), 0/100 (15 to 40 minutes) • Eluent flow rate: 1.0 mL/minute • Wavelength for detection: 210 nm [Results of Test]
The compounds in Synthesis Examples 2 and 6 were improved in the solubility in toluene, cyclopentyl methyl ether, and ethyl acetate, as compared to the compound in Reference Synthesis Example 3.

[2] = Test Example 2: Evaluation of the solubility in an organic solvent (HPLC); assay type: physicochemical; conditions: for amount of the compound dissolved in 100 g of organic solvent: per 100 g solvent, 20° C., stirred one hour or longer
Procedure: In the measurement of the solubility, the compound obtained in Synthesis Example 8 was used.
as §1, with “acetate,” for “acetate so as to be saturated,”
as §2
The compound in Synthesis Example 8 was improved in the solubility in toluene, cyclopentyl methyl ether, and ethyl acetate, as compared to the compound in Reference Synthesis Example 3.

| Compound | amount of the compound dissolved in 100 g of organic solvent ([1]; cyclopentyl methyl ether) [g] | amount of the compound dissolved in 100 g of organic solvent ([1]; ethyl acetate) [g] | solubility as compared to the compound in Reference Synthesis Example 3 [1] | amount of the compound dissolved in 100 g of organic solvent ([1]; toluene) [g] | amount of the compound dissolved in 100 g of organic solvent ([2]; cyclopentyl methyl ether) [g] | amount of the compound dissolved in 100 g of organic solvent ([2]; ethyl acetate) [g] | solubility as compared to the compound in Reference Synthesis Example 3 ([2]; in toluene, cyclopentyl methyl ether, and ethyl acetate) | amount of the compound dissolved in 100 g of organic solvent ([2]; toluene) [g] |
| --- | --- | --- | --- | --- | --- | --- | --- | --- |
| CC[Si](CC)(CCCOCC(CCC(C)CC(C)(C)C)C(C)CC(C)(C)C)CCOC(=O)[C@H](Cc1ccccc1)NC(=O)[C@H](Cc1ccccc1)NC(=O)OCC1c2ccccc2-c2ccccc21 (stereo partly drawn) [Synthesis Example 2, Fmoc-Phe-Phe-OFESE] | 111 | 97 | improved | 116 | – | – | – | – |
| CCCCCCCCCCCCCCCCCC[Si](C)(C)CCOC(=O)[C@H](Cc1ccccc1)NC(=O)[C@H](Cc1ccccc1)NC(=O)OCC1c2ccccc2-c2ccccc21 [Synthesis Example 6, Fmoc-Phe-Phe-ODMSE] | 41 | 8.4 | improved | 38 | – | – | – | – |
| CC(CCC(COCCC[Si](CCOC(=O)[C@H](Cc1ccccc1)NC(=O)[C@H](Cc1ccccc1)NC(=O)OCC1c2ccccc2-c2ccccc21)(c1ccccc1)c1ccccc1)C(C)CC(C)(C)C)CC(C)(C)C (stereo partly drawn) [Synthesis Example 8, Fmoc-Phe-Phe-OFPSE] | – | – | – | – | >140 | >140 | improved | >140 |
| C[Si](C)(C)CCOC(=O)[C@H](Cc1ccccc1)NC(=O)[C@H](Cc1ccccc1)NC(=O)OCC1c2ccccc2-c2ccccc21 [Reference Synthesis Example 3, Fmoc-Phe-Phe-OTMSE, reference compound] | 1.4 | 4.5 | – | 0.87 | 1.4 | 4.5 | – | 0.87 |
